Read-outs that look alike come from different tables or passages of the source.
Key:
[1] = tested on: neonate CBW (cotton bollworm) larvae; experiment: Surface-treated diet test against neonate CBW larvae; type: in vivo, Heliothis zea
Procedure: (§1) Each test compound was formulated by dissolving the compound in an acetone/alcohol (1:1) mixture containing 23 g of "Toximul R" (sulfonate/nonionic emulsifier blend) and 13 g of "Toximul S" (sulfonate/nonionic emulsifier blend) per liter. These mixtures were then diluted with water to give the indicated concentrations.
(§2) Additional insects were evaluated using similar formulations and evaluation procedures, with the exceptions noted.
(§3) After standard exposure periods, percent mortality was evaluated. The following abbreviations are used:
^b Mean of two replicates tested
^d Diet is surface treated with A83543A, allowed to dry and infested

blow fly larvae (LBF) = experiment: Guinea pig systemic test, blow fly larvae; type: in vivo
Procedure: Adult guinea pigs are used in this test system. The compounds to be tested are dissolved in aqueous polyvinyl pyrrolidone or in polyethylene glycol 200, and an appropriate amount of the solution is administered either orally or by intraperitoneal injection.
Blood is drawn from the guinea pigs at 30 minutes except as noted, and the samples of blood are centrifuged. Dental wicks are saturated with the blood serum, and then exposed in Petri dishes to adult stable flies; blow fly larvae are exposed in test tubes. After 24 and 48 hours, the insects are examined, and the number of dead are counted. The results of the tests are recorded as the percent of the insects which are killed.

Haemonchus contortus = experiment: In vitro test against sheep intestinal nematode; details: read-out: worms killed
Source text: In in vitro tests against the sheep intestinal nematode Haemonchus contortus, A83543A killed 30% of the worms at a concentration of 100 ppm.

adult stable fly (ASF) = experiment: In vitro efficacy, exposure of ASF to chemically added serum samples; details: Stomoxys calcitrans, read-out: Percent insect mortality
Source text: ^1 Percent insect mortality following 24 to 48 hrs. in vitro exposure
to chemically added serum samples

[2] = tested on: SAW (Southern armyworm) larvae; experiment: Foliar/bushbean test against SAW larvae; type: in vivo; details: Spodoptera eridania, foliar; for inhibition at 0.5 ppm: 0.50 ppm
Procedure: as §1
[…] Other plants in the same treatment pot were left uninfested. The leaves were then sprayed with 5 mL of test solution using a DeVilbiss atomizing sprayer at 10 psi. Both surfaces of the leaves were covered until runoff and then allowed to dry for one hour. Two uninfested leaves were then excised and placed into a Petri dish containing Southern armyworm (Spodoptera eridania Cramer).
as §2, §3
^a Days between treatment and observation
^b Mean of replicates tested

CA (cotton aphid) = experiment: Greenhouse test against CA; type: in vivo; details: Aphis gossypii, squash
Procedure: as §1
Two-spotted spider mites (Tetranychus urticae Koch) and cotton or melon aphids (Aphis gossypii Glover) were introduced on squash cotyledons and allowed to establish on both leaf surfaces. Other plants in the same treatment pot were left uninfested. The leaves were then sprayed with 5 mL of test solution using a DeVilbiss atomizing sprayer at 10 psi. Both surfaces of the leaves were covered until runoff and then allowed to dry for one hour. Two uninfested leaves were then excised and placed into a Petri dish containing Southern armyworm (Spodoptera eridania Cramer).
After standard exposure periods, percent mortality was evaluated.

In the case of `CC[C@H]1CCC[C@H](O[C@H]2CC[C@H](N(C)C)[C@@H](C)O2)[C@@H](C)C(=O)C2=C[C@@H]3[C@@H](C=C[C@@H]4C[C@@H](O[C@@H]5O[C@@H](C)[C@H](OC)[C@@H](OC)[C@H]5OC)C[C@@H]34)[C@@H]2CC(=O)O1` [A83543A], the inhibition at 0.5 ppm ([1]; 72 h, 3 days, 0.50 ppm) was 15%, the inhibition at 1 ppm ([1]; 72 h, 3 days) was 45% and the inhibition at 5 ppm ([1]; 72 h, 3 days) was 100%. The inhibition at 10 ppm ([1]; 72 h, 3 days) was 100%, the inhibition at 50 ppm ([1]; 72 h, 3 days) was 100% and the inhibition at 1 ppm ([1]; 96 h, 4 days) was 30%. It also gave an inhibition at 5 ppm ([1]; 96 h, 4 days) of 100%, an inhibition at 10 ppm ([1]; 96 h, 4 days) of 100% and an inhibition at 50 ppm ([1]; 96 h, 4 days) of 100%. For the same compound, the inhibition at 100 ppm ([1]; 96 h, 4 days, 100.00 ppm) was 100%, the “LBF activity (% mortality)” value (blow fly larvae (LBF); 10 mg/kg IP, 30 min) was 0% and the “% Activity LBF” value (blow fly larvae (LBF); 10 mg/kg IP, bled 30 min) was 0%. The “% Activity LBF” value (blow fly larvae (LBF); 10 mg/kg IP, bled 5 hr) was 0%, the “% Activity LBF” value (blow fly larvae (LBF); 10 mg/kg IP, bled 24 hr) was 0% and the “LBF activity (% mortality)” value (blow fly larvae (LBF); 20 mg/kg IP, 30 min) was 0%. The “% Activity LBF” value (blow fly larvae (LBF); 20 mg/kg IP, bled 30 min) was 0%, the “% Activity LBF” value (blow fly larvae (LBF); 20 mg/kg IP, bled 5 hr) was 0% and the “% Activity LBF” value (blow fly larvae (LBF); 20 mg/kg IP, bled 24 hr) was 0%. For the same compound, the “LBF activity (% mortality)” value (blow fly larvae (LBF); 30 mg/kg IP) was 90%, the “% Activity LBF” value (blow fly larvae (LBF); 30 mg/kg IP, bled 30 min) was 90% and the “% Activity LBF” value (blow fly larvae (LBF); 30 mg/kg IP, bled 5 hr) was 50%. For the same compound, the “% Activity LBF” value (blow fly larvae (LBF); 30 mg/kg IP, bled 24 hr) was 30%, the “LBF activity (% mortality)” value (blow fly larvae (LBF); 50 mg/kg IP, 30 min) was 100% and the “% Activity LBF” value (blow fly larvae (LBF); 50 mg/kg IP, bled 30 min) was 100%. For the same compound, the “% Activity LBF” value (blow fly larvae (LBF); 50 mg/kg IP, bled 5 hr) was 95%, the “% Activity LBF” value (blow fly larvae (LBF); 50 mg/kg IP, bled 24 hr) was 25% and the “LBF activity (% mortality)” value (blow fly larvae (LBF); 50 mg/kg OR (oral), 30 min) was 100%. The “% Activity LBF” value (blow fly larvae (LBF); 50 mg/kg oral, bled 5 hr) was 100%, the “% Activity LBF” value (blow fly larvae (LBF); 50 mg/kg oral, bled 24 hr) was 0% and the killing at 100 ppm (Haemonchus contortus) was 30%. The mortality at 0.312 ppm (adult stable fly (ASF); 24 hr) was 0%, the mortality at 0.312 ppm (adult stable fly (ASF); 48 hr) was 50% and the mortality at 0.625 ppm (adult stable fly (ASF); 24 hr) was 0%. For the same compound, the mortality at 0.625 ppm (adult stable fly (ASF); 48 hr) was 70%, the mortality at 1.25 ppm (adult stable fly (ASF); 24 hr) was 20% and the mortality at 1.25 ppm (adult stable fly (ASF); 48 hr) was 100%. The mortality at 2.5 ppm (adult stable fly (ASF); 24 hr) was 30%, the mortality at 2.5 ppm (adult stable fly (ASF); 48 hr) was 100% and the mortality at 5 ppm (adult stable fly (ASF); 24 hr) was 50%. For the same compound, the mortality at 5 ppm (adult stable fly (ASF); 48 hr) was 100%, the mortality at 10 ppm (adult stable fly (ASF); 24 hr) was 80% and the mortality at 10 ppm (adult stable fly (ASF); 48 hr) was 100%. For the same compound, the inhibition at 1 ppm ([2]; 72 h, neonate, 3 days) was 10%, the inhibition at 5 ppm ([2]; 72 h, neonate, 3 days) was 40% and the inhibition at 10 ppm ([2]; 72 h, neonate, 3 days) was 100%. For the same compound, the inhibition at 50 ppm ([2]; 72 h, neonate, 3 days) was 100%, the inhibition at 100 ppm ([2]; 72 h, neonate, 3 days) was 100% and the inhibition at 10 ppm ([2]; 96 h, fifth instar, 4 days) was 0%. It also gave an inhibition at 50 ppm ([2]; 96 h, fifth instar, 4 days) of 0%, an inhibition at 0.5 ppm ([2]; 96 h, neonate, 4 days) of 0% and an inhibition at 1 ppm ([2]; 96 h, neonate, 4 days) of 66.7%. The inhibition at 5 ppm ([2]; 96 h, neonate, 4 days) was 100%, the inhibition at 10 ppm ([2]; 96 h, neonate, 4 days) was 100% and the inhibition at 50 ppm ([2]; 96 h, neonate, 4 days) was 100%. The inhibition at 1 ppm ([2]; 96 h, second instar, 4 days) was 0%, the inhibition at 5 ppm ([2]; 96 h, second instar, 4 days) was 0% and the inhibition at 10 ppm ([2]; 96 h, second instar, 4 days) was 80%. The inhibition at 50 ppm ([2]; 96 h, second instar, 4 days) was 80%, the inhibition at 100 ppm ([2]; 96 h, second instar, 4 days) was 100% and the inhibition at 0.5 ppm ([2]; 96 h, third instar, 4 days) was 0%. For the same compound, the inhibition at 1 ppm ([2]; 96 h, third instar, 4 days) was 0%, the inhibition at 5 ppm ([2]; 96 h, third instar, 4 days) was 40% and the inhibition at 10 ppm ([2]; 96 h, third instar, 4 days) was 100%. The inhibition at 50 ppm ([2]; 96 h, third instar, 4 days) was 100%, the inhibition at 25 ppm (CA (cotton aphid); 25 ppm, second series) was 0% and the inhibition at 50 ppm (CA (cotton aphid); first series) was 0%. For the same compound, the inhibition at 50 ppm (CA (cotton aphid); second series) was 40%, the inhibition at 100 ppm (CA (cotton aphid); first series) was 0% and the inhibition at 100 ppm (CA (cotton aphid); second series) was 80%.

Source: patent publication US5362634A, “Process for producing A83543 compounds” (DowElanco, priority 1991, dated 1994)
